Columns and labels:
NIT-1 cells [1] = assay: CRISPR/Cas9 whole-genome loss-of-function (LOF) screen: GeCKO library-A infected NIT-1 cells transplanted into NOD.scid mouse with diabetic NOD splenocytes, gRNA sequencing of surviving graft; type: in vivo; conditions: surviving NIT-1 graft of one NOD.scid mouse, ~60 days, severely hyperglycemic; mini-seq
From the text: A series of tools to run a CRISPR/Cas9 mediated whole-genome loss-of-function (LOF) screen were developed. The GeCKO V2 lentiviral pooled library was used that comprises guide RNAs (gRNAs) against every gene (Addgene, targeting >20,000 genes with 6 gRNAs/gene). This library was split into two sub-libraries (A and B), which each cover all targeted genes with 3 gRNAs/gene. These libraries cover the entire coding genome to potentially mutate every gene and also contain >1000 non-targeting gRNAs as internal negative controls. In the GeCKO library, Cas9 and gRNAs were incorporated into a single lentiviral vector to introduce these gene-targeting elements into beta cells by lentiviral infection.
A high-stringency LOF screen was done using a single mouse. In this model, 10^7 GeCKO library-A infected NIT-1 cells (multiplicity of infection (MOI)=0.3) were injected subcutaneously, and 10^7 diabetic NOD splenocytes were injected intravenously at the same time.
For sequencing, genomic DNA from explanted grafts was extracted with genome DNA midi prep kits, and the gRNA region was amplified from genomic DNA using established protocols.
Selection pressure (i.e., autoimmune attack) on transplanted NIT-1 cells was maximized by waiting until NOD.scid mice had become severely hyperglycemic (˜60 days, marked by the arrow) as shown in FIG. 4. Even after the blood glucose of one recipient NOD.scid mouse had reached approximately 500 mg/dL, approximately 50,000 cells from the remaining graft could be isolated. gRNAs were amplified from the genome DNA of the graft and surveyed by mini-seq (low-depth sequencing).
Since the GeCKO library (A library) only contain approximately 60,000 unique gRNAs, 10^6-10^7 sequencing reads was sufficient to cover the whole library and to achieve statistical significance. Typically, one high throughput sequencing reaction using the second generation Illumina system (e.g. NextSeq 500) can yield ˜150 millions of sequence reads, so multiple samples from different grafts were barcoded, mixed and sequenced together, thus greatly reducing sequencing costs.
The sequencing data was de-barcoded and then analyzed by bioinformatics analysis. Established analysis tools such as HiTSelect or MAGeCK were used for gRNA enrichment analysis. In sum, the ability to amplify, sequence and sub-clone gRNAs after in vivo selection allowed identification of genes whose suppression improved beta cell survival.
As expected with the high stringency selection, only 13 unique gRNAs that target 12 genes out of >60,000 gRNAs present in pre-implantation cells were identified. The number of times the gRNA was present in sequence (count), the frequency of the gRNA in the total reads, and the gene targeted by the gRNA are shown in Table 2. Two different gRNAs targeting Menl were found in the screen. The target genes in Table 2 encode for mouse SEQ ID Nos: 11-22 in Table 1, and the known human equivalents of these gene products are SEQ ID Nos: 1-10 in Table 1.

NIT-1 cells [2] = assay: Co-culture of NIT-1 cells with NOD splenocytes, active caspase 3 staining; type: cell-based, mouse; conditions: 24 hours, 50 splenocytes:1 NIT-1 cell, NIT-1 lines stably expressing gRNA, FIG. 7
Protocol: FIGS. 6A-6C show are in vitro co-culture system for studying NIT-1 cell death by NOD splenocytes. […] The ratios represent ratios of splenocytes to NIT-1 cells. For example, 50:1 indicates 50-times more splenocytes than NIT-1 cells, while 0:1 indicates NIT-1 cells cultured without splenocytes. P<0.0001=****.
NIT-1 cells were incubated for 24 hours with splenocytes at a ratio of 50 splenocytes:1 NIT-1 cell. P<0.05=*; P<0.01=**, and P<0.001=***.
There is little cell death over 24 hours of NIT-1 cells not co-cultured with NOD splenocytes (0:1 ratio of splenocytes to NIT-1 cells in FIG. 6B), as evidenced by weak staining of active caspase-3. In contrast, NIT-1 cells co-cultured with a high ratio of NOD splenocytes (50:1 ratio of splenocytes to NIT-1 cells in FIG. 6B) show high cell death, as evidenced by strong caspase-3 activity. […] This model can be used to study whether inhibiting or suppressing expression of target genes blocks or inhibits the ability of NOD splenocytes to mediate NIT-1 cell death over time.

NIT-1 beta cells = assay: Thapsigargin-induced ER stress, cell viability by MTT assay; type: cell-based, mouse; conditions: control NIT-1 cells, thapsigargin at different dosages, 3 days
From the text: NIT-1 beta cells were genetically modified at two genes—1) Rnls; and 2) Zbed3 with CRISPR/Cas9 and guide RNAs (gRNAs) targeting Rnls and Zbed3, respectively. The modified NIT-1 cells had reduced expression of renalase (Rnls mutants) or zinc finger BED domain-containing protein 3 (Zbed3 mutants). ER stress was induced by thapsigargin, which blocks the sarco/endoplasmic reticulum Ca^2+-ATPase (SERCA) pump on the ER, thus depleting calcium from the ER and leading to misfolding of proteins in ER and eventually ER stress induced cell death. All cells were treated with thapsigargin for 3 days, and cell viability was evaluated by a standard MTT assay (see Mosmann T, J Immunol Methods 65(1-2):55-63 (1983)). […] Thus, inhibiting expression of the Rnls or Zbed3 protected beta cells from cell death induced by ER stress. See FIG. 8 (Rnls) and FIG. 9 (Zbed3).

Molecule	Count (number of times the gRNA was present in sequence) (NIT-1 cells [1])	Frequency (% of total reads) (NIT-1 cells [1])	NIT-1 cell death mediated by NOD splenocytes (activated caspase 3) (NIT-1 cells [2])	beta cell death (cell viability, MTT) (NIT-1 beta cells)
SEQ ID No: 32: gRNA targeting mouse Zbed3, sequence GCGCGAGGCGGCCCTAATGC (listed as DNA, chemistry not fully specified)	1160	3.85 % of total reads		
SEQ ID No: 27: gRNA targeting mouse GCN1 (Gcn1l1), sequence GCTTGACACTGCATCGATAT (listed as DNA, chemistry not fully specified)	3228	10.72 % of total reads		
SEQ ID No: 23: gRNA targeting mouse Men1, sequence CACGCCCGAGCTGTCCAGTT (listed as DNA, chemistry not fully specified)	4919	16.34 % of total reads	significantly decreased	
SEQ ID No: 30: gRNA targeting mouse Med11, sequence TTTCACGCTCGATATCCTCC (listed as DNA, chemistry not fully specified)	1346	4.47 % of total reads		
SEQ ID No: 34: gRNA targeting mouse Olfr911-ps1, sequence CTTCAAATGAGATCCACTGC (listed as DNA, chemistry not fully specified)	503	1.67 % of total reads		
SEQ ID No: 29: gRNA targeting mouse Plin4, sequence CTGCCTCCTTAGTTCCGACA (listed as DNA, chemistry not fully specified)	2529	8.40 % of total reads		
C/C=C(/C)C(=O)O[C@H]1C(C)=C2[C@H]([C@@H]1OC(=O)CCCCCCC)[C@@](C)(OC(C)=O)C[C@H](OC(=O)CCC)[C@@]1(O)[C@H]2OC(=O)[C@@]1(C)O [thapsigargin]				induced beta cell death
SEQ ID No: 35: gRNA targeting mouse Grm2, sequence GCGGCATAACGCCACACCCG (listed as DNA, chemistry not fully specified)	131	0.44 % of total reads		
SEQ ID No: 24: gRNA targeting mouse Hivep2, sequence TACGCACTCATACTGATGTT (listed as DNA, chemistry not fully specified)	4073	13.53 % of total reads		
SEQ ID No: 25: gRNA targeting mouse Rnls, sequence CTACTCCTCTCGCTATGCTC (listed as DNA, chemistry not fully specified)	3810	12.66 % of total reads		
SEQ ID No: 31: gRNA targeting mouse Tgm6, sequence CATCGGTGGCTGGGTCCTCC (listed as DNA, chemistry not fully specified)	1225	4.07 % of total reads		
SEQ ID No: 28: gRNA targeting mouse Gm3604, sequence ACTTTCGTATACAGATACTG (listed as DNA, chemistry not fully specified)	3226	10.72 % of total reads		
SEQ ID No: 33: second gRNA targeting mouse Men1, sequence GCTGTATGACCTCGGACATC (listed as DNA, chemistry not fully specified)	702	2.33 % of total reads	significantly decreased	
SEQ ID No: 26: gRNA targeting mouse Lgsn, sequence TGCAACCGCGAACCCTTACC (listed as DNA, chemistry not fully specified)	3252	10.80 % of total reads		

From patent US12545895B2, “Protection of beta cells from immune attack” (Joslin Diabetes Center, priority 2017, dated 2026)
